The values that follow are results of earlier work, collected in US20230226079A1, “METHODS AND COMPOSITIONS FOR TREATMENT OF SOLID TUMORS” (Saint Louis University, priority 2022, published 2023).

The conditions of data set [1]: in vivo; cited from earlier work.
For data set [2] the following is noted: literature; cited from earlier work.
For the next data set, the system named is different models. The note with it: cited from earlier work.

Regarding `COc1cc2c(Oc3ccc(NC(=O)C4(C(=O)Nc5ccc(F)cc5)CC4)cc3F)ccnc2cc1OCCCN1CCOCC1` [Foretinib], the adverse side effects result in data set [1] is “fatigue, hypertension, and gastrointestinal toxicities”.

As to `CN1CCN(C2CCN(C(=O)Nc3cc(Oc4ccc(NC(=O)C5(C(=O)Nc6ccc(F)cc6)CC5)c(F)c4)ccn3)CC2)CC1` [Golvatinib], the adverse side effects result in data set [1] is “supraventricular tachycardia, convulsion, and pulmonary embolism”. Consider `CO[C@H]1C=C2[C@@H](CC[C@H](O[C@@H]3O[C@H](CO)[C@@H](O)[C@@H](O)[C@H]3O)C2(C)C)[C@]2(C)CC[C@]3(C)[C@@H]([C@H](C)C/C=C/C(C)(C)O)CC[C@@]3(C)[C@H]12` [Karaviloside III], for which the “Reported Biology” value in data set [2] is on record as “cytotoxic activity”. As to `C[C@H](C/C=C/C(C)(C)O)[C@H]1CC[C@@]2(C)[C@@H]3[C@@H](O[C@@H]4O[C@H](CO)[C@@H](O)[C@H](O)[C@H]4O)C=C4[C@@H](CC[C@H](O)C4(C)C)[C@]3(C=O)CC[C@]12C` [Momordicoside L], the “Reported Biology” value in data set [2] is reported as “Weak α-glucosidase”. `C=C(C)/C=C/C[C@@H](C)[C@H]1CC[C@@]2(C)[C@@H]3[C@@H](O)C=C4[C@@H](CC[C@H](O)C4(C)C)[C@]3(C=O)CC[C@]12C` [kuguacin J]: the anticancer effect result in the data set on different models is recorded as “showed anticancer effect”. Consider Karayiloside XI, for which, in data set [2], the “Reported Biology” value was “Antidiabetic”. As to Sacranoside A, the “Reported Biology” value in data set [2] is listed as “nitric oxide inhibitory”. Take eleostearic acids: in the data set with different models, the anticancer effect result was “showed anticancer effect”.
